This note sets out measurements from patent US20090247495A1, “CU[…] AND USES THEREOF” (priority 2007, published 2009).

The test system of one assay is hsp27. Kind of assay: Western blot of hsp27 in HepG2, HT29 and MCF-7 cells. Format: cell-based, human. The procedure:
The human cancer cells line were serum starved for 18 hours prior to CuB/CuD treatment. Cells were incubated in a 6-well plate filled with 5 ml growth medium (RPMI with 0.2% FBS and 1% PS) at the cell density of 1×10^5 cells/ml, in the presence or absence of two different dosages of CuB/CuD for various time intervals. The drug treatment was terminated by centrifugation at 1,500 rpm for 5 minutes and the cells were rinsed twice with phosphate-buffered saline and lysed at 4° C. in a lysis buffer containing 50 mM Tris-HCl, pH7.5, 100 mM NaCl, 5 mM EDTA, 40 mM NaP2O7, 1% Triton X-100, 1 mM dithiothreitol, 200 μM Na3VO4, 100 uM phenylmethysufonyl fluoride, 2 μg/ml leupeptin, 4 μg/ml aprotinin and 0.7 μg/ml pepstatin. The insoluble protein lysate were removed by centrifugation for 10 minutes at 13,000 rpm. Fifteen micrograms of protein lysate was resolved using 10% SDS-polyacryamide gel electrophoresis (PAGE) and then subjected to western blot anaylsis. Western blots were performed with anti-Stat3, anti-Erk1/2 and anti-hsp27 antibodies specific for phosphor- and total Stat3, Erk and hsp27 proteins. The protein bands were then visualized with the Enhanced Chemiluminescence Plus (ECL Plus) detection system (Amersham). • 6.2.8.1 Inhibition Effect Cucurbitacin B/Cucurbitacin D on Stat3 Activation in HepG2 and HT29 Cells
Cells were incubated either with CuB or CuD (25 ug/ml or the dosage of IC50) for various time intervals (5, 10 or 30 mins, 1 or 4 hours). The Stat3 activation was detected by western blot.
(In western blotting, separated proteins are transferred to a membrane and probed.)

For a further assay, the system named is Panc-1 and SW cells. Kind of assay: Annexin V / PI apoptosis by flow cytometry, pancreatic cells. The format is cell-based, human. Conditions: 48 h, increasing concentration. As for the experimental part:
Panc-1 and SW cells was incubated with vary doses of cucurbitacin B for 48 h at 37° C. At the end of treatment, cells were washed twice with cold PBS and resuspended at 2×10^6 cells/ml in 1×binding buffer. The cells were then stained with Annexin V and propidium iodide. All analyses were performed by flow cytometry.

The test system of assay [1] is Human pancreatic cancer cell line Panc-1. Kind of assay: Hollow fiber assay, Panc-1. Format: in vivo, nude mice. Conditions: up to 8 days. The procedure: The hollow fiber assay (HFA) was developed by the NCI as a high-throughput, preliminary in vivo screening assay for the evaluation of anti-cancer agents.
Human pancreatic cancer cell line Panc-1 were in vitro cultured inside hollow fibers for overnight, followed by in vivo implantation at s.c. sites of the nude mice. Mice were treated with vehicle control (0.5% CMC), positive control (100 mg/kg Gemcitabine) and 3 doses of cucurbitacin B (0.1 mg/kg, 0.5 mg/kg and 1.0 mg/kg) for up to 8 days. Then the fibers were excised and analyzed for cell viability by MTT assay. An additional group, the growth control group was also included in the assay. Mice in this group were sacrificed on the first day of treatment, and fibers were excised and analyzed for cell viability by MTT assay. The efficacies of cucurbitacin B against Panc-1 were expressed as the inhibited (or not) net growth percentage of the cancer cells when compared to the vehicle control group.

Assay [2] concerns Human liver cancer cell lines HepG2. The assay is described as follows: MTT cytotoxicity assay, matrix combination of CuB and Sb on liver cancer cells. Format: cell-based. As to conditions: HepG2, 2 days, Sb 0 μM. The procedure: Human liver cancer cell lines HepG2 was purchased from American Type Culture Collection (ATCC, Manassas, Va., USA). The cells were cultured in RPMI 1640 medium supplemented with 5% (v/v) fetal bovine serum (FBS) and 100 units/ml penicillin and streptomycin (Invitrogen Life Technologies) in a humidified 5% CO2 atmosphere at 37° C.
A total of 1×10^4 cells were seeded into a 96-well plate for 24 hours prior to drug treatment. They were then treated with different dosages (a multiple of 20-fold of IC50 values) of CuB or Sb for 48 hours. After the treatment, 20 μl of MTT (5 mg/ml) was added to each well and incubated for 4 hrs. Then the medium was discarded and 100 μl of dimethyl sulfoxide was added. The absorbance at 570 nm was then measured by using FLUOstar OPTIMA equipment (BMG, LABTECH GmbH, Germany). The percentage of inhibition against different dosages of CuB or Sb were plotted using the Prism software and the 50% inhibition concentration (IC50) were obtained.
The cells were then treated for 2 days and the % inhibition of growth is determined.
The excess over Bliss additivism may be calculated using the following formula and shown in Table 4: • Bliss Additivism: Combined response=CuB+Sb−(CuB)(Sb) where each effect is expressed as fractional inhibition between 0 and 1 • Excess over additivism=observed response−combined response
A general note: Tetrazolium assays rely on reduction of a dye to a coloured formazan, in cell work by metabolically active cells.

A word on the % inhibition: it is the share of the control response that was lost under treatment. With `CC(=O)OC(C)(C)/C=C/C(=O)[C@](C)(O)C1[C@H](O)C[C@@]2(C)C3CC=C4C(C[C@H](O)C(=O)C4(C)C)[C@]3(C)C(=O)C[C@]12C` (stereo partly drawn) [cucurbitacin B], the Hsp27 activation entry with hsp27 (HT29, 10 minutes) is given as “significant up-regulation”; in the assay on hsp27 (HepG2, 30 minutes), “significant up-regulation”; in the assay with hsp27 (MCF-7, 4 hours), “significant up-regulation”. Further, the apoptotic cells entry in the assay on Panc-1 and SW cells was “the percentage of apoptic cells rise”. In addition, the “net-growth of Panc-1 compared to the vehicle control group” value in assay [1] (0.1 mg/kg and 0.5 mg/kg) was “about 40%”. Besides, in assay [1] (0.1 mg/kg, 0.5 mg/kg and 1.0 mg/kg), the “net cell growth of Panc-1 in hollow fibers” value is recorded as “potently inhibited”. The “% inhibition” value in assay [2] (CuB 0.056 μM) was found to be 25.89%; in assay [2] (CuB 0.167 μM), 41.93%; in assay [2] (CuB 0.5 μM) it was 37.94%; in assay [2] (CuB 1.5 μM), 39.01%; in assay [2] (CuB 4.5 μM), 36.57%. Further, the “Excess over Bliss additivism” value in assay [2] (CuB 0.056 μM), in assay [2] (CuB 0.167 μM), in assay [2] (CuB 0.5 μM), in assay [2] (CuB 1.5 μM) and in assay [2] (CuB 4.5 μM) was 0 each time. Moreover, the “Excess over Highest Single Agent Model” value in assay [2] (CuB 0.056 μM), in assay [2] (CuB 0.167 μM), in assay [2] (CuB 0.5 μM), in assay [2] (CuB 1.5 μM) and in assay [2] (CuB 4.5 μM) was 0 in each case.
